Columns and labels:
[1] = system: human IgG (polyclonal antirhamnose antibodies); assay: BLI monitoring of covalent reaction with human IgG (Figure 4B); type: binding; details: 10 μM cARM, 230 μM human IgG, up to 25 h
From the text: (§1) The design of rhamnose-SO2F-cARM was again supported by in-silico docking and predicted to preorganize electrophilic SO2F proximal to lysine 104 and serine 53 of the anti-23F heavy chain as well as tyrosine 32 of the light chain (Figure S3). To evaluate the capacity of rhamnose-SO2F-cARMs to specifically label polyclonal antirhamnose antibodies, a tool cARM with a biotin TBD was synthesized (compound 12, Figure 4A, Scheme S5). As an orthogonal kinetics assay to fluorescent gels, tool compound 12 labeling kinetics was first evaluated using an in-house BLI assay and compared to acyl imidazole cARM and ARM analogs. […] Solutions were immediately loaded onto streptavidin probes (Figure 4B, Figure S8). In this assay, rhamnose competition blocks noncovalent antirhamnose recruitment, thus the signal amplitude is directly proportional to the covalently labeled antibody product.
(§2) Figure 4 Selectivity and kinetic analysis of optimized Rha-SO2F-cARMs A. Chemical structures of tool compounds used in this study. B. cARM 12 (10 μM) was incubated with human IgG or BSA (230 μM) then diluted 8× with 100 mM competitor rhamnose spiked kinetics buffer and loaded onto streptavidin probes in BLI. The association plateau was plotted against time to yield the % labeled vs time covalent labeling curve C. Kinetic fluorescence SDS-PAGE assay similar to that in Figure 2D. […]

BSA = molecular target: T1, BSA (Bos taurus, UniProt P02769); assay: BLI monitoring of covalent reaction, BSA control; type: binding; details: 10 μM cARM, 230 μM BSA in lieu of IgG
T1 construct: purchased Sigma Aldrich A9576-50ML
From the text: as §1, §2

anti-23F antibody [2] = assay: Mass spectrometry study of anti-23F labelling; type: binding, human; details: 10 µM cARM, 2.7 µM anti-23F, 45 hours
Description: To further confirm selectivity, an MS study was conducted to determine the site of labeling (Figures S10 and S11). […] No other labeling site was detected on the light chain; however, the lability of the SO2F-serine/tyrosine linkage to MS sample preparation protocols likely limited complete labeling site coverage. […] Due to the low labeling efficiency of rhamnose-AI-cARM, no labeling site could be identified. […] Determining the selectivity for antirhamnose antibodies in the presence of off-target cell surface proteins will be the focus of future in vivo studies.
Mass Spectrometry Study – Anti-23F Labelling
Anti-23F (2.7 µM) was incubated with 10 µM of Biotin-AI-cAR M 4 or Biotin-SO2F-cAR M 12, or PBS (antibody only) for 45 hours before MS analysis. Analysis was completed by Bioinformatics Solutions
Inc. Briefly, for intact protein analysis each sample was treated with PNGase F to remove glycans followed by LC-MS analysis. To determine site of labelling, each sample was digested with tryspin, chymostrypsin, and pepsin then analyzed by LC-MS/MS on a timsTOF Pro. Peptide spectra were mapped to a known antibody sequence (anti -23F antibody, Creative Biolabs - PABX-173). No labelling was identified with acyl imidazole containing cARM 4. […]
approxima tely 30% labelling post MS protocol (Figure S11)
Figure S10. Sample analysis of peptide mapping of anti-23F heavy chain. Modification with cARM 12 is […]
(1 picture or pasted object on this page, not shown here)

anti-23F antibody [3] = assay: Kinetic SDS-PAGE fluorescence labelling kinetics; type: binding, human; details: rhamnose and antirhamnose antibody; approximated from KI
Description: Figure 2 Capacity of Rha-cARMs to specifically covalently engage monoclonal anti-23F and serum anti-rhamnose. A. Chemical structures of the molecules investigated. B. Assessment of covalent vs noncovalent (cARM/ARM) engagement of human serum antirhamnose antibody via an ELISA assay. Each ARM/cARM (2 μM) was incubated with 2% human serum for 48 h and subsequently incubated directly on a streptavidin ELISA plate. Recruitment was evaluated by the addition of anti-IgG or anti-IgM HRP-conjugated secondary antibody with subsequent chromogenic substrate addition. “Comp” represents the addition of competitor rhamnose (500 mM) during 48 h of incubation. […] D. Kinetic SDS-PAGE fluorescence imaging experiment to determine Rha-AI-cARM/anti-23F antibody labeling kinetics using A647-cARM (8). cARM 8 (2–100 μM) was incubated with anti-23F antibody (2 μM) for up to 4 h. A representative fluorescence gel image is included corresponding to compound 8 (50 μM) incubated with either anti-23F antibody or isotype human IgG. Densitometry analysis with ImageJ was used to quantify relative band intensities. […] The error is calculated by alternative fits of initial rates data (all within the linear labeling range). […]
Figure 4 Selectivity and kinetic analysis of optimized Rha-SO2F-cARMs A. Chemical structures of tool compounds used in this study. […] Kinetic fluorescence SDS-PAGE assay similar to that in Figure 2D. […]

In the case of `C[C@@H]1O[C@@H](OCCNC(=O)C(CCCCNC(=O)OCCOCCOCCOCCOCCOCCOCCOCCNC(=O)CCCC[C@@H]2SC[C@@H]3NC(=O)N[C@@H]32)NC(=O)c2cccc(S(=O)(=O)F)c2)[C@H](O)[C@H](O)[C@H]1O` (some centres unmarked) [compound 12], the “reaction time to plateau of labeled antibody signal” value [1] is reported as at most 10 h, the “loading/labeling with BSA” value (BSA) is reported as “minimal loading/labeling” and the “site of labelling (LC-MS/MS peptide mapping)” value (anti-23F antibody [2]) is reported as “only lysine 104 of antibody heavy chain”. The “labelling by intact MS” value (anti-23F antibody [2]; post MS protocol) was about 30%.
`C[C@H](O)[C@H](O)[C@@H](O)[C@@H](O)C=O` [rhamnose, L-rhamnose] showed a Kd (anti-23F antibody [3]) of about 15 µM.

Reference: paper PMC10683482, “Offsetting Low-Affinity Carbohydrate Binding with Covalency to Engage Sugar-Specific Proteins for Tumor-Immune Proximity Induction” (ACS Central Science, 2023)
